Measured values published in US9689042B2, “Use of glycolytic pathways for inhibiting or measuring oncogenic signaling” (The Regents of the University of California, priority 2012, dated 2017).
Entries after “also recorded” stand apart in the source; their conditions may differ.

Assays:
[1] = system: S1 cells infected with GLUT3-HA-encoding lentivirus; assay: 3D lrECM culture of S1 cells overexpressing GLUT3; format: cell-based, human; conditions: S1 cells over-expressing GLUT3-HA, 2DG 4 mM
Description: HIV 5′ LTR sequence in pTRIPZ vector (Open Biosystems) was removed by FspI-BbvCI digestion to replace with sequence containing chimeric CMV promoter-HIV 5′ LTR. CMV promoter was amplified by PCR from pcDNA3 (Invitrogen), fused to sequence containing partial HIV 5′ LTR sequence. The resulting intermediate vector, pTRIPZ-OY (optimal yield) was digested with BbvCI and NotI, to remove sequence containing TRE-minCMV promoter, turboRFP, UbqC promoter and rtTA3 (described in the manual provided by the manufacturer). The sequences containing EF1α/HTLV hybrid promoter and multiple cloning sites were removed from pCDH-EF1-MCS-T2A-Puro vector (System Bioscience) by digestion with the same restriction enzymes, and ligated into the digested pTRIPZ-OY vector, resulting in pLETIP vector. GLUT3 cDNA fused to C-terminal HA tag was amplified from total cDNA of T4-2 cells by PCR. The primers used were as follows: 5′-[…]-3′ (SEQ ID NO: 9) and 5′-[…] TTAGCA-3′ (SEQ ID NO: 10). The amplified cDNA was digested with BamHI and XmaI, and ligated into the same sites of pBluescriptII SK(−) vector for validating the sequence. GLUT3-HA cDNA was then digested with BamHI and SmaI, and ligated into pLETIP vector digested with NotI, blunted with T4 polymerase and further digested with BamHI, resulting in pLETIP GLUT3-HA vector. […]

EGFR, ITGB1, GLUT3 mRNA = assay: Quantitative PCR of EGFR, ITGB1 and GLUT3 mRNA in T4-2 cells; format: cell-based, human; conditions: 3D lrECM, normalized to 18S ribosomal RNA
Description: First strand cDNA pools of S1, T4-2 and reverted T4-2 cells were obtained from total RNA of each sample by using SuperScript II (Invitrogen). For each sample, reverse transcription was carried out with random hexamer and with oligo dT primer following the manufacturer's instruction, and the two reactions were mixed in a ratio of 9:1. Expression levels of EGFR, ITGB1, GLUT3 and 18S ribosomal RNA (used as a control) were quantified in LightCycler system (Roche) using QuantiTect SYBR Green PCR Kits (QIAGEN) and the reverse transcription mixtures. Expression levels of EGFR, ITGB1, GLUT3 were normalized to that of 18S ribosomal RNA.

T4-2 cells [2] = assay: Mitochondrial activity (MitoTracker oxidation) assay in 3D lrECM; format: cell-based, human
Description: Cells suspended in 200 μl lrECM were seeded in 12 well glass-bottom plates (14 mm diameter; MatTek Corporation). Gels were overlaid with 500 μl H14 media and cultured for 10 days before each assay unless otherwise described.
For mitochondrial activity, we slightly modified the method described previously (Morici et al., 2007). Briefly, cells were incubated with 2 μM MitoTracker® Orange CM-H2 TMRos (Invitrogen) for 1 hour and fixed with PFA as above. Cells were counterstained with Hoechst 33342 (Invitrogen), which is known also to bind to DNA stoichiometrically, then MitoTracker and Hoechst staining were measured by taking z-section images from top to bottom of the gels using confocal microscopy.
In each assay, one well, containing only lrECM, was made for background measurements. Glucose uptake measured by 2DG uptake, lactate production and MitoTracker staining were normalized using total DNA levels, and presented relative to that of control (either S1 or non-treated T4-2 cells).

T4-2 cells [3] = conditions: T4-2 cells, 3D lrECM
Description: (§1) HMT-3522 cells were cultured on tissue culture plastic (2D) and in 3D lrECM gels with H14 medium, a 1:1 mix of DMEM/F12 (UCSF Cell Culture Facility) supplemented with 250 ng/ml insulin, 10 μg/ml transferrin, 2.6 ng/ml sodium selenite, 0.1 nM β-estradiol, 1.4 μM hydrocortisone and 5 μg/ml prolactin but no serum. S1 cells were additionally supplemented with 10 ng/ml EGF. MDA-MB-231 and HCC70 cells were cultured in DMEM and RPMI1640, respectively, and were supplemented with 10% fetal bovine serum (FBS).
(§2) For 3D lrECM cultures, S1 and T4-2 cells were seeded at 840,000 and 600,000 cells per cm3 respectively in lrECM gel (Cultrex), overlaid with H14 medium. MDA-MB-231 and HCC70 cells were seeded at 625,000 cell per cm3 and overlaid with H14 medium supplemented with 1% FBS. Cells were used for each assay after 10 days, unless otherwise indicated.
Pieces of lrECM gel containing cell colonies were suspended in approximately the same volume of phosphate buffered saline (PBS) and directly spread on glass slides. After brief air-drying, colonies were fixed with 3.7% paraformaldehyde (PFA) in PBS at room temperature (RT) for 10 min, washed with PBS containing 0.1 mM glycine, and permeabilized with 1:1 methanol/acetone at −20° C. for 10 min. After blocking with IF buffer (0.2% Triton X-100, 0.1% BSA [radioimmunoassay grade], 0.05% Tween 20, 7.7 mM NaN3 in PBS) containing 10% goat serum and 1% goat F(ab′)2 anti-mouse immunoglobulin G (IgG; Caltag) at RT for 30 min, colonies were stained with anti-α6 integrin antibody (Chemicon International) at 4° C. overnight. Colonies were washed extensively with IF buffer, and stained with Alexa 568-labeled anti-rat IgG antibody at RT for 2 hr. Colonies were washed with IF buffer again, and nuclei were stained with DAPI at RT for 10 min. Slides were briefly washed with PBS and mounted with 50% glycerol in PBS.
To test whether increased glucose metabolism itself is required for oncogenic signaling events, we utilized 3D lrECM cultures of HMT-3522, a breast cancer progression series which includes non-malignant (S1) and malignant (T4-2) human breast epithelial cells from the same individual (Briand et al., 1987; Petersen et al., 1992; Rizki et al., 2008). Using these cells, we have described the involvement and reciprocity of multiple signaling pathways including EGFR, β1 integrin, PI3K-Akt and MEK-ERK in oncogenic events (Beliveau et al., 2010; Bissell et al., 2005). […] We thus used this “phenotypic reversion” of the cancer cells as an assay to examine how the signaling integration plan of the breast acini could involve glucose metabolism.

S1 cells = assay: 3D lrECM culture of non-malignant S1 cells: acinar morphology and growth; format: cell-based, human; conditions: 2DG 4 mM, OGM 4 ng/ml
Description: as §1, §2
Pieces of lrECM gel containing cell colonies were suspended in approximately the same volume of phosphate buffered saline (PBS) and directly spread on glass slides. After brief air-drying, colonies were fixed with 3.7% paraformaldehyde (PFA) in PBS at room temperature (RT) for 10 min, washed with PBS containing 0.1 mM glycine, and permeabilized with 1:1 methanol/acetone at −20° C. for 10 min. […]

[4] = system: EGFR, β1 integrin, Akt, MEK, GLUT3, glycolytic enzymes in T4-2 cells; assay: Western blots of signaling intermediates, GLUT3 and metabolic enzymes in 3D lrECM cultures of T4-2 cells; format: cell-based, human; conditions: T4-2 cells
Description: Cell colonies were separated from lrECM gels by shaking in PBS containing 5 mM EDTA and the proteinase inhibitor cocktail set I (Calbiochem) on ice for 30 min. Cells were lysed in lysis buffer (1% NP-40, 1% deoxycholate, 2% SDS, 150 mM NaCl, 20 mM Tris-HCl [pH 7.4] plus 5 mM EDTA and protease inhibitor cocktail set I and phosphatase inhibitor cocktail set I [Calbiochem]) and sonicated three times for 30 sec each. Proteins were separated by SDS-PAGE, transferred to nitrocellulose membranes, and probed with antibodies against the following proteins: phosphorylated MEK, MEK, phosphorylated Akt, Akt, phosphorylated AMPK, AMPK, p70S6K, phosphorylated p70S6K, CHOP, EPAC1 (Cell Signaling), β1 integrin, EGFR, activated EGFR, HIF-1α, (Chemicon International), PFKP (Abgent), GAPDH, GLUT3 (GeneTex), LDHA, PDHE1α, DLAT, DLD, HIF-3α, Rap1, sAC, EPAC2, OGT, Lamin A/C (Santa Cruz Biotechnology), Aldolase (Polysciences), GFPT (ProteinTech Group), HIF-2α (Abcam), and HA-tag (Covance). After probing with HRP-conjugated secondary antibodies, blots were developed using SuperSignal West Femto chemiluminescence reagent (Pierce Biotechnology). Images were captured using Fluor Chem 8900 imager (Alpha Innotech).

[5] = same inhibitor concentrations as E1

O=CC[C@@H](O)[C@H](O)[C@H](O)CO [2DG, 2-deoxy-D-glucose]
reversal of the disorganized phenotype caused by GLUT3 over-expression [1]: could be reversed
mRNA expression of EGFR, β1 integrin and GLUT3 (EGFR, ITGB1, GLUT3 mRNA): effectively suppressed
mitochondrial activity (oxidation) (T4-2 cells [2]): essentially unaffected
phenotypic reversion of the malignant phenotype (T4-2 cells [3]; 2DG 4 mM, IA 20 μM, OX 50 mM, Azs 20 μM, DON 20 μM, BADGP 5 mM, TM 10 ng/ml, OGM 4 ng/ml, Rapa 0.01-1.0 μM): induced phenotypic reversion; also recorded: do induce phenotypic reversion
basal polarity / organized acinar structures (T4-2 cells [3]; [5]): re-establishment of basally polarized acini
growth / proliferation (cell numbers at the colony mid-section, EdU incorporation) (T4-2 cells [3]; [5]): growth arrest
acinar morphology, basal polarity and growth rate of non-malignant cells (S1 cells): altered neither the acinar morphology nor the growth rate
expression of ER stress marker CHOP ([4]; 3D cultures, 2DG 4 mM): unchanged
phosphorylation of AMPK or S6K ([4]; 3D cultures, 2DG 4 mM): did not affect
expression of GLUT3 and the glycolytic enzymes ([4]; 3D lrECM, Western blot): dramatic down-regulation
expression of PDC components ([4]; 3D lrECM, Western blot): elevated
levels and/or activities of EGFR, β1 integrin, Akt and MEK (oncogenic signaling) ([4]; 3D lrECM, Western blot): decrease
